Reference: patent publication US9738634B2, “Heterocyclic amide compound and herbicide” (SYNGENTA PARTICIPATIONS AG, priority 2013, dated 2017)

How the values were obtained:
Type in all cases: in vivo
barnyard grass [1] = experiment: Test Example 1: weedkilling efficacy, preemergent weed treatment in the submerged state; A: barnyard grass; conditions: treatment dosage 252 g/ha
Method in brief: (§1)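 Pots of alluvial soil flooded 4 cm deep, sown with barnyard grass, bulrush and oval-leafed pondweed and transplanted with 2.5-leaf rice. Emulsified compound applied to the water surface on sowing day at stated g/ha; greenhouse 25–30 °C, effects assessed 3 weeks after treatment.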

bulrush [2] = experiment: Test Example 1: weedkilling efficacy, preemergent weed treatment in the submerged state; B: bulrush; conditions: treatment dosage 252 g/ha
Method in brief: as §1

oval-leafed pondweed [3] = experiment: Test Example 1: weedkilling efficacy, preemergent weed treatment in the submerged state; C: oval-leafed pondweed; conditions: treatment dosage 252 g/ha
Method in brief: as §1

transplanted rice = experiment: Test Example 1: preemergent weed treatment in the submerged state, effect on crop; a: transplanted rice; conditions: treatment dosage 252 g/ha
Method in brief: as §1

barnyard grass [4] = experiment: Test Example 2: weedkilling efficacy, growth period weed treatment in the submerged state; A: barnyard grass; conditions: treatment dosage 252 g/ha
Method in brief: (§2)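 Barnyard grass, bulrush and oval-leafed pondweed sown in alluvial soil under 4 cm flooding, greenhouse 25 to 30° C. At 1-2 leaf stage, water-diluted emulsion applied to the water surface at stated g/ha dosages; effects scored 3 weeks later.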

bulrush [5] = experiment: Test Example 2: weedkilling efficacy, growth period weed treatment in the submerged state; B: bulrush; conditions: treatment dosage 252 g/ha
Method in brief: as §2

oval-leafed pondweed [6] = experiment: Test Example 2: weedkilling efficacy, growth period weed treatment in the submerged state; C: oval-leafed pondweed; conditions: treatment dosage 252 g/ha
Method in brief: as §2

crabgrass = experiment: Test Example 3: weedkilling efficacy through soil treatment; D: crabgrass; conditions: soil treatment, treatment dosage 315 g/ha
Excerpt: (§3) Weedkilling Efficacy Test Through Soil Treatment
(§4) Sterilized diluvial soil was introduced into 21 cm long, 13 cm wide, 7 cm deep plastic boxes, and seeds of crabgrass, green foxtail, barnyard grass, wild oat, black-grass, Italian ryegrass, common wind-grass, Indian mallow, redroot pigweed, fig-leafed goosefoot, chickweed, catchweed, birds-eye speedwell, corn, soybean, rice, wheat, beet and rapeseed were each spot-sown, and covered with about 1.5 cm of soil. Next, emulsions of compounds of the present invention prepared according to compounding example 2 were diluted with water to give the specified dosages, and applied uniformly onto the soil surface with a small sprayer. The plants were grown by placing the plastic boxes in a greenhouse at 25 to 30° C., and 3 weeks after the pesticide treatment the effect on each type of plant was investigated on the basis of the assessment criteria of test example 1.
(§5) A: barnyard grass, B: bulrush, C: oval-leafed pondweed, D: crabgrass, E: green foxtail, F: barnyard grass, G: wild oat, H: black-grass, I: Italian ryegrass, J: common wind-grass, K: Indian mallow, L: redroot pigweed, M: fig-leafed goosefoot, N: chickweed, O: catchweed, p: birds-eye speedwell, a: transplanted rice, b: directly sown rice, c: corn, d: soybean, e: wheat, f: beet, g: rapeseed
(§6) Further, pesticide dosage (g/ha) indicates the concentration regulated such that treatment was with only the stated number of grams (g), when calculated per hectare (ha).

green foxtail = experiment: Test Example 3: weedkilling efficacy through soil treatment; E: green foxtail; conditions: soil treatment, treatment dosage 315 g/ha
Excerpt: as §3, §4, §5, §6

wild oat = experiment: Test Example 3: weedkilling efficacy through soil treatment; G: wild oat; conditions: soil treatment, treatment dosage 315 g/ha
Excerpt: as §3, §4, §5, §6

black-grass = experiment: Test Example 3: weedkilling efficacy through soil treatment; H: black-grass; conditions: soil treatment, treatment dosage 315 g/ha
Excerpt: as §3, §4, §5, §6

Italian ryegrass = experiment: Test Example 3: weedkilling efficacy through soil treatment; I: Italian ryegrass; conditions: soil treatment, treatment dosage 315 g/ha
Excerpt: as §3, §4, §5, §6

Indian mallow = experiment: Test Example 3: weedkilling efficacy through soil treatment; K: Indian mallow; conditions: soil treatment, treatment dosage 315 g/ha
Excerpt: as §3, §4, §5, §6

redroot pigweed = experiment: Test Example 3: weedkilling efficacy through soil treatment; L: redroot pigweed; conditions: soil treatment, treatment dosage 315 g/ha
Excerpt: as §3, §4, §5, §6

fig-leafed goosefoot = experiment: Test Example 3: weedkilling efficacy through soil treatment; M: fig-leafed goosefoot; conditions: soil treatment, treatment dosage 315 g/ha
Excerpt: as §3, §4, §5, §6

chickweed = experiment: Test Example 3: weedkilling efficacy through soil treatment; N: chickweed; conditions: soil treatment, treatment dosage 315 g/ha
Excerpt: as §3, §4, §5, §6

directly sown rice = experiment: Test Example 3: soil treatment, effect on crop; b: directly sown rice; conditions: soil treatment, treatment dosage 315 g/ha
Excerpt: as §3, §4, §5, §6

corn = experiment: Test Example 3: soil treatment, effect on crop; c: corn; conditions: soil treatment, treatment dosage 315 g/ha
Excerpt: as §3, §4, §5, §6

soybean = experiment: Test Example 3: soil treatment, effect on crop; d: soybean; conditions: soil treatment, treatment dosage 315 g/ha
Excerpt: as §3, §4, §5, §6

wheat = experiment: Test Example 3: soil treatment, effect on crop; e: wheat; conditions: soil treatment, treatment dosage 315 g/ha
Excerpt: as §3, §4, §5, §6

beet = experiment: Test Example 3: soil treatment, effect on crop; f: beet; conditions: soil treatment, treatment dosage 315 g/ha
Excerpt: as §3, §4, §5, §6

birds-eye speedwell = experiment: Test Example 3: weedkilling efficacy through soil treatment; p: birds-eye speedwell; conditions: soil treatment, treatment dosage 315 g/ha
Excerpt: as §3, §4, §5, §6

| Structure (SMILES) | A: barnyard grass, weed kill grade (barnyard grass [1]) | B: bulrush, weed kill grade (bulrush [2]) | C: oval-leafed pondweed, weed kill grade (oval-leafed pondweed [3]) | a: transplanted rice, effect on crop grade (transplanted rice) | A (barnyard grass) weedkilling efficacy grade (barnyard grass [4]) | B (bulrush) weedkilling efficacy grade (bulrush [5]) | D: crabgrass, weedkilling efficacy grade (crabgrass) | E: green foxtail, weedkilling efficacy grade (green foxtail) | G: wild oat, weedkilling efficacy grade (wild oat) | H: black-grass, weedkilling efficacy grade (black-grass) | I: Italian ryegrass, weedkilling efficacy grade (Italian ryegrass) | K: Indian mallow, weedkilling efficacy grade (Indian mallow) | L: redroot pigweed, weedkilling efficacy grade (redroot pigweed) | M: fig-leafed goosefoot, weedkilling efficacy grade (fig-leafed goosefoot) | N: chickweed, weedkilling efficacy grade (chickweed) | b: directly sown rice, effect on crop grade (directly sown rice) | c: corn, effect on crop grade (corn) | d: soybean, effect on crop grade (soybean) | e: wheat, effect on crop grade (wheat) | f: beet, effect on crop grade (beet) | other results |
| --- | --- | --- | --- | --- | --- | --- | --- | --- | --- | --- | --- | --- | --- | --- | --- | --- | --- | --- | --- | --- | --- |
| Cc1cc(NC(=O)C(C)(C)N2COCN(c3ccccc3)C2=O)sn1 [A-1-10] | 3 (weed kill ratio 40% or more, less than 70%) | 5 (weed kill ratio 90% or more, (practically complete withering)) | 3 (weed kill ratio 40% or more, less than 70%) | 0 (weed kill ratio 5% or less (practically no effect)) | 0 (weed kill ratio 5% or less (practically no effect)) | 5 (weed kill ratio 90% or more, (practically complete withering)) | 4 (weed kill ratio 70% or more, less than 90%) | 4 (weed kill ratio 70% or more, less than 90%) | 0 (weed kill ratio 5% or less (practically no effect)) | 2 (weed kill ratio 20% or more, less than 40%) | 4 (weed kill ratio 70% or more, less than 90%) | 3 (weed kill ratio 40% or more, less than 70%) | 4 (weed kill ratio 70% or more, less than 90%) | 4 (weed kill ratio 70% or more, less than 90%) | 0 (weed kill ratio 5% or less (practically no effect)) | 0 (weed kill ratio 5% or less (practically no effect)) | 0 (weed kill ratio 5% or less (practically no effect)) | 0 (weed kill ratio 5% or less (practically no effect)) | 0 (weed kill ratio 5% or less (practically no effect)) | 4 (weed kill ratio 70% or more, less than 90%) | C (oval-leafed pondweed) weedkilling efficacy grade (oval-leafed pondweed [6]): 0 (weed kill ratio 5% or less (practically no effect)) |
| CC(C)(C(=O)Nc1cc(Cl)cc(Cl)n1)N1COCN(c2ccccc2)C1=O [A-2-17, N-(4,6-dichloropyridin-2-yl)-2-methyl-2-(4-oxo-5-phenyl-1,3,5-oxadiazinan-3-yl) propionamide] | – | – | – | – | – | – | 5 (weed kill ratio 90% or more, (practically complete withering)) | 5 (weed kill ratio 90% or more, (practically complete withering)) | 5 (weed kill ratio 90% or more, (practically complete withering)) | 5 (weed kill ratio 90% or more, (practically complete withering)) | 5 (weed kill ratio 90% or more, (practically complete withering)) | 5 (weed kill ratio 90% or more, (practically complete withering)) | 5 (weed kill ratio 90% or more, (practically complete withering)) | 5 (weed kill ratio 90% or more, (practically complete withering)) | 5 (weed kill ratio 90% or more, (practically complete withering)) | 5 (weed kill ratio 90% or more, (practically complete withering)) | 4 (weed kill ratio 70% or more, less than 90%) | 5 (weed kill ratio 90% or more, (practically complete withering)) | 4 (weed kill ratio 70% or more, less than 90%) | 5 (weed kill ratio 90% or more, (practically complete withering)) | P: birds-eye speedwell, weedkilling efficacy grade (birds-eye speedwell): 5 (weed kill ratio 90% or more, (practically complete withering)) |
| CC(C)(C(=O)Nc1cc(C(F)(F)F)cc(Cl)n1)N1COCN(c2ccccc2)C1=O [A-2-28] | 5 (weed kill ratio 90% or more, (practically complete withering)) | 5 (weed kill ratio 90% or more, (practically complete withering)) | 5 (weed kill ratio 90% or more, (practically complete withering)) | 2 (weed kill ratio 20% or more, less than 40%) | 5 (weed kill ratio 90% or more, (practically complete withering)) | 5 (weed kill ratio 90% or more, (practically complete withering)) | 5 (weed kill ratio 90% or more, (practically complete withering)) | 5 (weed kill ratio 90% or more, (practically complete withering)) | 5 (weed kill ratio 90% or more, (practically complete withering)) | 5 (weed kill ratio 90% or more, (practically complete withering)) | 5 (weed kill ratio 90% or more, (practically complete withering)) | 4 (weed kill ratio 70% or more, less than 90%) | 4 (weed kill ratio 70% or more, less than 90%) | 5 (weed kill ratio 90% or more, (practically complete withering)) | 5 (weed kill ratio 90% or more, (practically complete withering)) | 5 (weed kill ratio 90% or more, (practically complete withering)) | 1 (weed kill ratio 5% or more, less than 20%) | 3 (weed kill ratio 40% or more, less than 70%) | 1 (weed kill ratio 5% or more, less than 20%) | 5 (weed kill ratio 90% or more, (practically complete withering)) | C (oval-leafed pondweed) weedkilling efficacy grade (oval-leafed pondweed [6]): 5 (weed kill ratio 90% or more, (practically complete withering)) |
| Cc1cccc(NC(=O)C(C)(C)N2COCN(c3ccccc3)C2=O)n1 [A-2-38] | 5 (weed kill ratio 90% or more, (practically complete withering)) | 5 (weed kill ratio 90% or more, (practically complete withering)) | 4 (weed kill ratio 70% or more, less than 90%) | 0 (weed kill ratio 5% or less (practically no effect)) | 3 (weed kill ratio 40% or more, less than 70%) | 5 (weed kill ratio 90% or more, (practically complete withering)) | 5 (weed kill ratio 90% or more, (practically complete withering)) | 5 (weed kill ratio 90% or more, (practically complete withering)) | 5 (weed kill ratio 90% or more, (practically complete withering)) | 5 (weed kill ratio 90% or more, (practically complete withering)) | 5 (weed kill ratio 90% or more, (practically complete withering)) | 2 (weed kill ratio 20% or more, less than 40%) | 5 (weed kill ratio 90% or more, (practically complete withering)) | 4 (weed kill ratio 70% or more, less than 90%) | 4 (weed kill ratio 70% or more, less than 90%) | 5 (weed kill ratio 90% or more, (practically complete withering)) | 2 (weed kill ratio 20% or more, less than 40%) | 2 (weed kill ratio 20% or more, less than 40%) | 0 (weed kill ratio 5% or less (practically no effect)) | 4 (weed kill ratio 70% or more, less than 90%) | C (oval-leafed pondweed) weedkilling efficacy grade (oval-leafed pondweed [6]): 3 (weed kill ratio 40% or more, less than 70%) |
